Results reported in patent US12029738B2, “Antiproliferative compounds and methods of use thereof” (Celgene Corporation, priority 2017, dated 2024).
Several values for one entry are separate records, joined by “and”; a condition that tells them apart may be missing. Equal values may be shown once. Read-outs that look alike come from different tables or passages of the source.

What was measured:
[1] = system: NCI-H929-1051 (lenalidomide-resistant); assay: Cell proliferation assay (CTG, 120 h); type: cell-based, human; details: for IC50: Homo sapiens, 120 h
Experimental: Cell Culture Materials: Human multiple myeloma cell lines were purchased from the vendors and cultured at 37° C. with 5% CO2 in the media as indicated in Table 1. Lenalidomide and pomalidomide resistant cell lines were obtained by methods as generally described previously (Lopez-Girona et al Leukemia 2012; 26(11): 2335). All cell lines were kept in log phase, and cell density and viability were monitored by trypan blue exclusion using the Vi-cell XR cell viability analyzer (Beckman Coulter, Brea, CA).
Preparation of Solutions of Test Article: Compounds were plated into black 384-well plates (Corning Inc.) to a final DMSO volume of 0.1% assuming a maximal volume of 50 μL. A 10-point dose response starting at 10 μM with a 1:3 dilution was printed in duplicate by acoustic dispense using the EDC ATS-100 platform. Alternatively, the 10-point dose response starting at 10 μM with a 1:10 dilution, or starting at 100 nM with a 1:3 dilutions were used.
Cell Proliferation Assays: The effect of compounds on the proliferation/viability of the hematological cell lines (Table 1), was assessed after 120 h incubation using CTG (Promega), according to manufacturer's instructions. Hematological cell lines were dispensed into compound plates by a Multidrop Combi Reagent Dispenser (Thermo Scientific, Waltham, MA) at a concentration of 0.1×10^6 cells per mL in a 50 μL total volume. At 120 h, 25 μL per well of CTG was dispensed by a Multidrop Combi Reagent Dispenser and adenosine triphosphate (ATP) release by viable cells was measured as relative luminescence units after 30 minutes using the Envision platform.
Results. […] The MM cell lines selected for this study were lines sensitive and resistant to lenalidomide and/or pomalidomide (Table 1), two agents used in the clinic to treat myeloma patients. Proliferation was assessed using the CellTitre-Glo© assay. Results for cultures incubated with the compounds were normalized to results for control cultures for each cell line. The IC50 for inhibition of cell growth by the compounds was determined for each cell line using ActivityBase software.
Combination with Dexamethasone. The activity of pomalidomide with that of Compound 2 alone or in combination with dexamethasone was evaluated across a panel of MM cell lines. […] Table 3 summarizes the potency (IC50) of the single agent and dexamethasone combination studies performed in the H929-1051 cell line. […] Each IC50 is the average from at least 3 independent experiments. Proliferation was monitored on Day 5 using Cell Titer-Glo.

dopamine D2S receptor = molecular target: T1, dopamine D2S receptor (Homo sapiens, UniProt P14416); assay: Dopamine D2S receptor agonist assay (impedance, HEK-293); type: cell-based
T1 construct: host or cells: HEK-293 cells (membrane homogenates)
T1 sequence (P14416 1-414 isoform P14416-2): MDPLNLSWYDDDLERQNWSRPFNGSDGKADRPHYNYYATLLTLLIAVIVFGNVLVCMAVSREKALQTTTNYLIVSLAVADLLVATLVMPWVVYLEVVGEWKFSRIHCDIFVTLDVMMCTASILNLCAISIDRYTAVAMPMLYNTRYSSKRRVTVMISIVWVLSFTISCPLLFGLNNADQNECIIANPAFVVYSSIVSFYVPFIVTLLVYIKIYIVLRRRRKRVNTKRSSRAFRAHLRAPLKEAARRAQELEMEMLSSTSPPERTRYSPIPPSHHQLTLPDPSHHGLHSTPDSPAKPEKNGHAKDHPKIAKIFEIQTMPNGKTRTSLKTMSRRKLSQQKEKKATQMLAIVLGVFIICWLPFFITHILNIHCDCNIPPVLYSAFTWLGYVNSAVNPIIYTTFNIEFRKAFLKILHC
Experimental: α1 Adrenergic and Dopamine D2 Receptors. Methods: Binding and functional assays for α1 adrenergic and dopamine D2 receptors were performed by Eurofins Cerep according to their methods.
Agonist activity. The agonism of test compounds on the dopamine D2S receptor was assessed using human receptor-transfected HEK-293 cells. Agonist activity was determined by measuring compound effect on impedance modulation. In these experiments, HEK-293 cells were incubated in duplicate at 28° C. with test article. Compound A was tested at 0.01-30 μM. […] Dopamine (3 μM) was used as an agonist control. Impedance measurements were monitored for 10 minutes after ligand addition using cellular dielectric spectroscopy. The EC50 was defined as the concentration causing a half-maximum response, compared to the control agonist (dopamine) response.

U266 = assay: Flow cytometry proliferation/apoptosis assay (120 h); type: cell-based, human; details: for IC50: Homo sapiens, U-266, read-out: Antiproliferative Activity (Flow Cytometry) IC50; for induced apoptosis AUC (area under the dose response curve): scale 0-10000
Experimental: (§1) Methods. […] Using 5 mM stocks, compounds were pre-spotted into the appropriate wells of 96-well plates using a Hewlett-Packard D300 Digital Dispenser. Cells were added to 96-well plates using a Multidrop Combi Reagent Dispenser. After 5 days of treatment, flow cytometric analysis was used to determine the number of cells that were alive, dead, or apoptotic. After 5 days of treatment, cells were incubated with annexin V to stain exposed phosphatidylserine, an apoptotic cell-surface marker, and the vital dye 7-AAD, which is excluded from cells with intact cell membranes, and analyzed by flow cytometry (Attune®, Thermo Fisher). Analysis was then performed to determine the number of live cells (annexin V and 7-AAD double negative staining cells) and the percentage of apoptotic cells (annexin V positive cells) for each condition, relative to the DMSO control treated, was calculated. All described values were normalized to DMSO-only treated cells. All proliferation and apoptosis induction curves were processed and graphed as percent of control using XLFit (IDBS, Alameda, CA) and GraphPad Prism 7.03 (GraphPad Software, La Jolla, CA). The live cell count for every concentration was normalized to the DMSO control (considered as 100%) in Microsoft Excel to generate the proliferation curves. […] Similarly, for apoptosis analysis, the percentage of drug-induced apoptosis was calculated for all doses by combining both “early” (annexin V positive and 7-AAD negative) and “late” apoptosis (annexin V and 7-AAD positive) values and subtracting background values (cell treated with vehicle control DMSO). The AUC values for apoptosis curves were calculated by performing area under curve analysis on GraphPad Prism 7.03. The area under the dose-response curve (AUC) was calculated since it integrates potency and efficacy of the drugs to represent apoptosis into a single parameter. The IC50 values for Compound 2 and pomalidomide in the flow cytometry assays are presented Table 9.
(§2) The apoptosis induction effect of Compound 2 was assessed using flow cytometry after 120 h of treatment and compared with pomalidomide treatment. […] Each data point represents 2 independent experiments with at least two samples in each experiment. (Table 10).

ARH-77 = assay: as above; type: cell-based, human; details: for IC50: Homo sapiens, read-out: Antiproliferative Activity (Flow Cytometry) IC50; for induced apoptosis AUC (area under the dose response curve): scale 0-10000
Experimental: as §1, §2

NCI-H929-1051 = assay: as above; type: cell-based, human; details: for induced apoptosis AUC (area under the dose response curve): H929-1051, scale 0-10000; for IC50: Homo sapiens, NCI-H929-1051, read-out: Antiproliferative Activity (Flow Cytometry) IC50
Experimental: as §1, §2

RPMI-8226 = assay: as above; type: cell-based, human; details: for IC50: Homo sapiens, read-out: Antiproliferative Activity (Flow Cytometry) IC50; for induced apoptosis AUC (area under the dose response curve): scale 0-10000
Experimental: as §1, §2

IM-9 = assay: as above; type: cell-based, human; details: for IC50: Homo sapiens, read-out: Antiproliferative Activity (Flow Cytometry) IC50; for induced apoptosis AUC (area under the dose response curve): scale 0-10000
Experimental: as §1, §2

KMS-11 = assay: as above; type: cell-based, human; details: for IC50: Homo sapiens, read-out: Antiproliferative Activity (Flow Cytometry) IC50; for induced apoptosis AUC (area under the dose response curve): scale 0-10000
Experimental: as §1, §2

CAG = assay: as above; type: cell-based, human; details: for IC50: Homo sapiens, read-out: Antiproliferative Activity (Flow Cytometry) IC50; for induced apoptosis AUC (area under the dose response curve): scale 0-10000
Experimental: as §1, §2

KMS34 = assay: as above; type: cell-based, human; details: for IC50: Homo sapiens, KMS-34, KMS34, read-out: Antiproliferative Activity (Flow Cytometry) IC50; for induced apoptosis AUC (area under the dose response curve): KMS-34, scale 0-10000
Experimental: as §1, §2

OPM2-P10 = assay: as above; type: cell-based, human; details: for IC50: Homo sapiens, read-out: Antiproliferative Activity (Flow Cytometry) IC50; for induced apoptosis AUC (area under the dose response curve): scale 0-10000
Experimental: as §1, §2

[2] = CTG, read-out: NCI-H929.1051 120 h IC50
[3] = read-out: 0.01 μM Dex Combo IC50, H929-1051, Day 5, in combination with 0.01 μM dexamethasone
[4] = read-out: 0.1 μM Dex Combo IC50, H929-1051, Day 5, in combination with 0.1 μM dexamethasone
[5] = read-out: 1 μM Dex Combo IC50, H929-1051, Day 5, in combination with 1 μM dexamethasone
[6] = H929-1051, Day 5 Cell Titer-Glo, single agent, read-out: Single Agent IC50

Row | SMILES | IC50 [1, 2] | IC50 [1, 3] | IC50 [1, 4] | IC50 [1, 5] | IC50 [1, 6] | IC50 (U266) | induced apoptosis AUC (area under the dose response curve) (U266) | IC50 (ARH-77) | induced apoptosis AUC (area under the dose response curve) (ARH-77) | induced apoptosis AUC (area under the dose response curve) (NCI-H929-1051) | IC50 (NCI-H929-1051) | IC50 (RPMI-8226) | induced apoptosis AUC (area under the dose response curve) (RPMI-8226) | IC50 (IM-9) | induced apoptosis AUC (area under the dose response curve) (IM-9) | IC50 (KMS-11) | induced apoptosis AUC (area under the dose response curve) (KMS-11) | IC50 (CAG) | induced apoptosis AUC (area under the dose response curve) (CAG) | IC50 (KMS34) | also measured
1 | N#Cc1ccc(N2CCN(Cc3ccc(COc4cccc5c4CN(C4CCC(=O)NC4=O)C5=O)cc3)CC2)c(F)c1 (racemic) [Compound 1, 4-(4-(4-(((2-(2,6-dioxopiperidin-3-yl)-1-oxoisoindolin-4-yl)oxy)methyl)benzyl)piperazin-1-yl)-3-fluorobenzonitrile] | 2.5 nM | – | – | – | – | – | – | – | – | – | – | – | – | – | – | – | – | – | – | – | D2S Agonism EC50 (dopamine D2S receptor; impedance, versus dopamine control): Negative
2 | O=C1CC[C@H](N2Cc3c(OCc4ccc(CN5CCN(c6ccc(F)cc6F)CC5)cc4)cccc3C2=O)C(=O)N1 [Compound B] | – | – | – | – | – | – | – | – | – | – | – | – | – | – | – | – | – | – | – | – | EC50 (dopamine D2S receptor; impedance, versus dopamine control, read-out: D2S Agonism EC50): 2700 nM and 1900 nM
3 | Nc1cccc2c1C(=O)N(C1CCC(=O)NC1=O)C2=O (centres unmarked) [Pomalidomide, pomalidomide] | – | 3840 nM | 118 nM | 18.8 nM | > 10000 nM | 381 nM | 373 | > 10000 nM | 28.16 | 423 | 1950 nM | > 10000 nM | 1369 | > 10000 nM | 25.4 | 5290 nM | 234.4 | 1080 nM | 1561 | > 10000 nM | induced apoptosis AUC (area under the dose response curve) (KMS34): 429.7; IC50 (OPM2-P10): > 10000 nM; induced apoptosis AUC (area under the dose response curve) (OPM2-P10): 108.7
4 | N#Cc1ccc(N2CCN(Cc3ccc(COc4cccc5c4CN([C@H]4CCC(=O)NC4=O)C5=O)cc3)CC2)c(F)c1 [Compound 2, (S)-4-(4-(4-(((2-(2,6-dioxopiperidin-3-yl)-1-oxoisoindolin-4-yl)oxy)methyl)benzyl)piperazin-1-yl)-3-fluorobenzonitrile] | 1 nM | 0.41 nM | 0.0429 nM | 0.018 nM | 0.98 nM | 0.19 nM | 927.8 | > 10000 nM | 709 | 3968 | 0.45 nM | 0.75 nM | 3245 | 5570 nM | 323.9 | 1.41 nM | 1270 | 0.12 nM | 5804 | 0.45 nM | potency of single agent versus pomalidomide-dexamethasone combination ([1]; H929-1051): 10 fold; EC50 (dopamine D2S receptor): > 10000 nM; induced apoptosis AUC (area under the dose response curve) (KMS34): 1614; IC50 (OPM2-P10): 1.81 nM; induced apoptosis AUC (area under the dose response curve) (OPM2-P10): 1768
